Results reported in US20070128217A1 (priority 2003, published 2007).

What was measured:
[1] = tested on: antibodies in sera from SARS patients (sera 1a, 1b, 2, 6, 37, 62, London, SARS-yellow, SARS-green); format: binding, human; set-up: Binding of serum 6 to linear peptides of protein X1 of SARS-CoV Urbani / Binding of serum 37 to linear peptides of protein X1 of SARS-CoV Urbani / Binding of serum 6 to looped/cyclic peptide (PEPSCAN-ELISA) / Binding of serum 37 to looped/cyclic peptide (PEPSCAN-ELISA) / Binding of serum 37 to looped/cyclic peptides of protein X1 of SARS-CoV Urbani / Binding of serum 6 to linear peptides of protein X2 / Binding of serum 37 to linear peptides of protein X2 / Binding of serum 37 to looped/cyclic peptides of protein X2 of SARS-CoV Urbani / Binding of serum 6 to linear peptides of protein M of SARS-CoV Urbani / Binding of serum 37 to linear peptides of protein M of SARS-CoV Urbani / Binding of serum 6 to looped/cyclic peptides of protein M of SARS-CoV Urbani / Binding of serum 37 to looped/cyclic peptides of protein M of SARS-CoV Urbani / Binding of serum 6 to linear peptides of protein X3 of SARS-CoV Urbani / Binding of serum 37 to linear peptides of protein X3 of SARS-CoV Urbani / Binding of serum 37 to looped/cyclic peptides of protein X3 of SARS-CoV Urbani / Binding of serum 6 to linear peptides of protein X4 of SARS-CoV Urbani / Binding of serum 37 to linear peptides of protein X4 of SARS-CoV Urbani / Binding of serum 37 to looped/cyclic peptides of protein X4 of SARS-CoV Urbani / Binding of serum 6 to linear peptides of protein X5 of SARS-CoV Urbani / Binding of serum 37 to linear peptides of protein X5 of SARS-CoV Urbani / Binding of serum 37 to looped/cyclic peptides of protein X5 of SARS-CoV Urbani / Binding of serum 6 to linear peptides of protein N of SARS-CoV Urbani / Binding of serum 37 to linear peptides of protein N of SARS-CoV Urbani / Binding of serum 6 to linear peptide (PEPSCAN-ELISA) / Binding of serum 1a to looped/cyclic peptides of protein N of SARS-CoV Urbani / Binding of serum 1b to looped/cyclic peptides of protein N of SARS-CoV Urbani / Binding of serum 2 to looped/cyclic peptides of protein N of SARS-CoV Urbani / Binding of serum 6 to looped/cyclic peptides of protein N of SARS-CoV Urbani / Binding of serum 37 to looped/cyclic peptides of protein N of SARS-CoV Urbani / Binding of serum 62 to looped/cyclic peptides of protein N of SARS-CoV Urbani / Binding of serum London to looped/cyclic peptides of protein N of SARS-CoV Urbani / Binding of serum SARS-green to looped/cyclic peptides of protein N of SARS-CoV Urbani: unit not given here
[2] = tested on: rabbit serum obtained by immunizing a rabbit with the SARS-CoV strain Frankfurt 1; format: binding; set-up: Binding of a rabbit serum to linear peptides / Binding of a rabbit serum to looped peptides / Rabbit serum linear peptides / Rabbit serum looped peptides / Binding of a rabbit serum to linear peptides of protein N of SARS-CoV Urbani (Rabbit serum linear peptides) / Binding of a rabbit serum to looped/cyclic peptides of protein N of SARS-CoV Urbani (Rabbit serum looped peptides): unit not given here
[3] = tested on: control sera (pooled serum of ten healthy LUMC hospital workers; commercial negative donor pooled serum from the Dutch bloodbank); format: binding, human; set-up: Binding of Control serum LUMC to linear peptides / Binding of Control serum Blood-bank to linear peptides / Binding of Control serum LUMC to looped peptides / Binding of Control Serum Blood-Bank to Looped peptides / Binding of Control serum LUMC to linear peptides of the protein M of SARS-CoV Urbani / Binding of Control serum Blood-bank to linear peptides of the protein M of SARS-CoV Urbani / Binding of Control serum LUMC to looped peptides of the protein M of SARS-CoV Urbani / Binding of Control Serum Blood-Bank to Looped peptides of the protein M of SARS-CoV Urbani: unit not given here

FLYLYALIYFLQCIN
0.5: Binding of serum 1b to linear peptides of protein X1 of SARS-CoV Urbani [1] | Binding of serum 2 to linear peptides of protein X1 of SARS-CoV Urbani [1] | Binding of serum 37 to linear peptides of protein X1 of SARS-CoV Urbani [1] | Binding of serum SARS-yellow to linear peptides of protein X1 of SARS-CoV Urbani [1] | Binding of Control Serum Blood-Bank to Looped peptides [3] | Binding of Control serum Blood-bank to linear peptides [3] | Binding of Control serum LUMC to linear peptides [3]
0.2: Binding of serum 6 to looped/cyclic peptide (PEPSCAN-ELISA) [1] | Binding of serum London to linear peptides of protein X1 of SARS-CoV Urbani [1] | Binding of serum London to looped/cyclic peptide (PEPSCAN-ELISA) [1] | Binding of serum SARS-green to linear peptides of protein X1 of SARS-CoV Urbani [1] | Binding of serum SARS-green to looped/cyclic peptide (PEPSCAN-ELISA) [1]
0.3: Binding of serum 1b to looped/cyclic peptide (PEPSCAN-ELISA) [1] | Binding of serum 2 to looped/cyclic peptide (PEPSCAN-ELISA) [1] | Binding of serum SARS-yellow to looped/cyclic peptide (PEPSCAN-ELISA) [1]
0.7: Binding of serum 1a to linear peptides of protein X1 of SARS-CoV Urbani [1]
0.4: Binding of serum 1a to looped/cyclic peptide (PEPSCAN-ELISA) [1] | Binding of serum 6 to linear peptides of protein X1 of SARS-CoV Urbani [1] | Binding of serum 37 to looped/cyclic peptide (PEPSCAN-ELISA) [1] | Binding of serum 62 to looped/cyclic peptide (PEPSCAN-ELISA) [1] | Binding of a rabbit serum to looped peptides [2] | Binding of Control serum LUMC to looped peptides [3]
0.6: Binding of serum 62 to linear peptides of protein X1 of SARS-CoV Urbani [1]
0.1: Binding of a rabbit serum to linear peptides [2]

FMRFFTLGSITAQPV
0.7: Binding of serum 37 to linear peptides of protein X1 of SARS-CoV Urbani [1] | Binding of serum 62 to linear peptides of protein X1 of SARS-CoV Urbani [1] | Binding of serum SARS-yellow to linear peptides of protein X1 of SARS-CoV Urbani [1] | Binding of Control serum Blood-bank to linear peptides [3] | Binding of Control serum LUMC to linear peptides [3]
0.5: Binding of serum 1a to looped/cyclic peptide (PEPSCAN-ELISA) [1] | Binding of serum 6 to linear peptides of protein X1 of SARS-CoV Urbani [1] | Binding of serum 37 to looped/cyclic peptide (PEPSCAN-ELISA) [1] | Binding of serum 62 to looped/cyclic peptide (PEPSCAN-ELISA) [1]
0.8: Binding of serum 1a to linear peptides of protein X1 of SARS-CoV Urbani [1] | Binding of serum 2 to linear peptides of protein X1 of SARS-CoV Urbani [1]
0.2: Binding of serum London to looped/cyclic peptide (PEPSCAN-ELISA) [1] | Binding of serum SARS-green to looped/cyclic peptide (PEPSCAN-ELISA) [1]
0.3: Binding of serum 1b to looped/cyclic peptide (PEPSCAN-ELISA) [1] | Binding of serum London to linear peptides of protein X1 of SARS-CoV Urbani [1] | Binding of serum SARS-green to linear peptides of protein X1 of SARS-CoV Urbani [1] | Binding of serum SARS-yellow to looped/cyclic peptide (PEPSCAN-ELISA) [1] | Binding of a rabbit serum to linear peptides [2]
0.4: Binding of serum 2 to looped/cyclic peptide (PEPSCAN-ELISA) [1] | Binding of serum 6 to looped/cyclic peptide (PEPSCAN-ELISA) [1] | Binding of a rabbit serum to looped peptides [2]
0.6: Binding of serum 1b to linear peptides of protein X1 of SARS-CoV Urbani [1] | Binding of Control Serum Blood-Bank to Looped peptides [3] | Binding of Control serum LUMC to looped peptides [3]

FQFICNLLLLFVTIY
0.1: Binding of serum London to looped/cyclic peptide (PEPSCAN-ELISA) [1] | Binding of serum SARS-green to linear peptides of protein X1 of SARS-CoV Urbani [1]
0.0: Binding of serum 1b to looped/cyclic peptide (PEPSCAN-ELISA) [1] | Binding of serum 2 to looped/cyclic peptide (PEPSCAN-ELISA) [1] | Binding of serum 37 to looped/cyclic peptide (PEPSCAN-ELISA) [1] | Binding of serum SARS-yellow to looped/cyclic peptide (PEPSCAN-ELISA) [1] | Binding of a rabbit serum to looped peptides [2]
0.5: Binding of serum 1b to linear peptides of protein X1 of SARS-CoV Urbani [1] | Binding of serum 2 to linear peptides of protein X1 of SARS-CoV Urbani [1] | Binding of serum 37 to linear peptides of protein X1 of SARS-CoV Urbani [1] | Binding of serum 62 to linear peptides of protein X1 of SARS-CoV Urbani [1] | Binding of serum SARS-yellow to linear peptides of protein X1 of SARS-CoV Urbani [1] | Binding of Control serum Blood-bank to linear peptides [3] | Binding of Control serum LUMC to linear peptides [3]
0.3: Binding of serum 6 to linear peptides of protein X1 of SARS-CoV Urbani [1] | Binding of Control serum LUMC to looped peptides [3]
0.6: Binding of serum 1a to linear peptides of protein X1 of SARS-CoV Urbani [1]
0.9: Binding of a rabbit serum to linear peptides [2]
0.2: Binding of serum 1a to looped/cyclic peptide (PEPSCAN-ELISA) [1] | Binding of serum 6 to looped/cyclic peptide (PEPSCAN-ELISA) [1] | Binding of serum 62 to looped/cyclic peptide (PEPSCAN-ELISA) [1] | Binding of serum London to linear peptides of protein X1 of SARS-CoV Urbani [1]
0.4: Binding of serum SARS-green to looped/cyclic peptide (PEPSCAN-ELISA) [1] | Binding of Control Serum Blood-Bank to Looped peptides [3]

FQVTIAEILIIIMRT
1.1: Binding of serum SARS-yellow to linear peptides of protein X3 of SARS-CoV Urbani [1]
0.6: Binding of serum 2 to linear peptides of protein X3 of SARS-CoV Urbani [1] | Binding of serum 6 to linear peptides of protein X3 of SARS-CoV Urbani [1] | Binding of serum 37 to looped/cyclic peptides of protein X3 of SARS-CoV Urbani [1] | Binding of serum SARS-yellow to looped/cyclic peptides of protein X3 of SARS-CoV Urbani [1] | Binding of Control serum LUMC to looped peptides of the protein X3 of SARS-CoV Urbani [3]
0.3: Binding of serum 1b to linear peptides of protein X3 of SARS-CoV Urbani [1] | Binding of serum 6 to looped/cyclic peptides of protein X3 of SARS-CoV Urbani [1] | Binding of serum 37 to linear peptides of protein X3 of SARS-CoV Urbani [1] | Rabbit serum looped peptides [2]
0.2: Binding of serum 1b to looped/cyclic peptides of protein X3 of SARS-CoV Urbani [1] | Binding of serum London to looped/cyclic peptides of protein X3 of SARS-CoV Urbani [1] | Binding of serum SARS-green to looped/cyclic peptides of protein X3 of SARS-CoV Urbani [1] | Rabbit serum linear peptides [2]
0.7: Binding of serum 1a to linear peptides of protein X3 of SARS-CoV Urbani [1] | Binding of serum London to linear peptides of protein X3 of SARS-CoV Urbani [1] | Binding of Control Serum Blood-Bank to Looped peptides of the protein X3 of SARS-CoV Urbani [3]
0.8: Binding of Control serum Blood-bank to linear peptides of the protein X3 of SARS-CoV Urbani [3]
0.4: Binding of serum 62 to looped/cyclic peptides of protein X3 of SARS-CoV Urbani [1] | Binding of Control serum LUMC to linear peptides of the protein X3 of SARS-CoV Urbani [3]
0.5: Binding of serum 1a to looped/cyclic peptides of protein X3 of SARS-CoV Urbani [1] | Binding of serum 2 to looped/cyclic peptides of protein X3 of SARS-CoV Urbani [1] | Binding of serum 62 to linear peptides of protein X3 of SARS-CoV Urbani [1] | Binding of serum SARS-green to linear peptides of protein X3 of SARS-CoV Urbani [1]

FVLAAVYRINWVTGG
0.4: Binding of serum SARS-yellow to looped/cyclic peptides of protein M of SARS-CoV Urbani [1]
0.7: Binding of serum 1a to looped/cyclic peptides of protein M of SARS-CoV Urbani [1] | Binding of serum 1b to linear peptides of protein M of SARS-CoV Urbani [1]
0.3: Binding of serum 6 to linear peptides of protein M of SARS-CoV Urbani [1] | Binding of serum London to linear peptides of protein M of SARS-CoV Urbani [1] | Binding of serum London to looped/cyclic peptides of protein M of SARS-CoV Urbani [1] | Binding of serum SARS-green to linear peptides of protein M of SARS-CoV Urbani [1] | Binding of serum SARS-green to looped/cyclic peptides of protein M of SARS-CoV Urbani [1]
0.6: Binding of serum 1b to looped/cyclic peptides of protein M of SARS-CoV Urbani [1] | Binding of serum 2 to linear peptides of protein M of SARS-CoV Urbani [1] | Binding of serum 62 to looped/cyclic peptides of protein M of SARS-CoV Urbani [1] | Binding of Control Serum Blood-Bank to Looped peptides of the protein M of SARS-CoV Urbani [3]
0.9: Binding of serum 1a to linear peptides of protein M of SARS-CoV Urbani [1]
0.8: Binding of serum 6 to looped/cyclic peptides of protein M of SARS-CoV Urbani [1] | Binding of serum 37 to linear peptides of protein M of SARS-CoV Urbani [1] | Binding of serum 62 to linear peptides of protein M of SARS-CoV Urbani [1] | Binding of Control serum Blood-bank to linear peptides of the protein M of SARS-CoV Urbani [3] | Binding of Control serum LUMC to looped peptides of the protein M of SARS-CoV Urbani [3]
0.5: Binding of serum 2 to looped/cyclic peptides of protein M of SARS-CoV Urbani [1] | Binding of serum 37 to looped/cyclic peptides of protein M of SARS-CoV Urbani [1] | Rabbit serum linear peptides [2] | Binding of Control serum LUMC to linear peptides of the protein M of SARS-CoV Urbani [3]
0.0: Rabbit serum looped peptides [2]
0.1: Binding of serum SARS-yellow to linear peptides of protein M of SARS-CoV Urbani [1]
